The target in one test is T1, PKAα (Homo sapiens, UniProt P17612).
T1 construct: polyHis; made in house; host or cells: E. coli
Nature of the test: FABS-NMR screening (3-FABS, 19F-labelled AKTide-like substrate) on PKA. Format: biochemical. To be noted: 25 nM protein, 30 µM substrate, 150 µM ATP. As for the experimental part:
The biochemical functional NMR screening on the proteins kinase AKT-1 and PKA was performed using the 3-FABS (3-Fluorine Atoms for Biochemical Screening) technique developed by C. Dalvit and the NMR group in house (C. Dalvit et al 2003 J. Am. Chem. Soc. 125 (47): 14620).
The method require the use of a ^19F-labelled substrate. The same commercial peptide was used as substrate in both enzymatic reaction: the Tyr just before the phosphorilation site in the AKTide peptide was mutated in a 3-tryfluormethyl-Phe by Bachem.
The AKTide like peptide sequence is reported below: • H-Ala-Arg-Lys-Arg-Glu-Arg-Ala-F(3-CF3)-Ser-Phe-Gly-His-His-Ala-OH
The active human Ser-Thr protein kinase AKT-1 Full Length was expressed as GST fusion protein in insect cells and then the GST was cleaved with PreScission protease. The active cycled AMP-dependent human protein kinase A PKA was expressed as polyHis-tag protein in E.Coli and purified by affinity column.
Reactions were performed in an end point format in eppendorf of 0.5 ml using the buffer solution 50mM Tris, pH 7.5, 5mM MgCl2, 1mM DTT, 8% D2O and 0.001% Triton-X-100; the final volume was of 560 µl. The substrate and protein concentration were of 30 µM and 25 nM respectively. The reactions were performed using an ATP concentration of about 9 times its KM: 150 µM in the test with PKA and 1.5 mM in the AKT-1 experiments. A sample in absence of inhibitor was run as control in order to follow the ongoing of the reaction and it represents the 0% inhibition. Different concentration compound stock solutions in DMSOd6 were made in order to add the same amount of DMSOd6 in each sample: usually the compounds stock were of 0.03, 0.2, 2, and 10 mM. 0.56 µl of these solution was added in each sample in order to reach the final compounds concentration of 30 nM, 200 nM 2 µM and 10 µM respectively; 0.56 µl of DMSOd6 was added in the control too. The reactions were quenched after about 100/120 minutes with 10 mM of Staurosporine (Sigma code:S4400), transferred into the 5 mm NMR tube (Cortec code: NE-MP5-8) and put onto the Sample Management System (SMS) autosampler for automatic data collection. The spectra were recorded using the Varian Inova 600 MHz NMR spectrometer operating at a ^19F Larmor frequency of 564 MHz and using a 5mm probe with the inner coil tuned to ^19F and the outer coil tuned to H. The data were recorded without proton decoupling with a spectral width of 12000 Hz, an acquisition time of 0.8s and a relaxation delay of 2.8s. Chemical shifts are referenced to trifluoroacetic acid.
IC50 determination was achieved by measuring the substrate signal as a function of the inhibitor concentration using one of the formulas below. […] IC50 data were analyzed with non-linear least squares methods in the Origin 5.0 software package.

The subject of test [1] is S6 ribosomal protein phosphorylation in MCF7. Nature of the test: Inhibition of AKT induced S6 ribosomal protein phosphorylation in MCF7 (immunofluorescence, ArrayScan). Format: cell-based. To be noted: Homo sapiens, MCF-7 cells, 4 hour treatment at 37°C, anti-phospho-S6 (Ser 235/236), read-out: S6 phosphorylation (Ser235/236) in MCF7-cell IC50. As for the experimental part:
MCF-7 cells (ATCC# HTB-22) were seeded in 96-well poly-lysine coated clear- and flat-bottomed black plates (Matrix Technologies Inc., Hudson, NH, USA), in E-MEM medium (MEM+ Earle's BSS + 2 mM glutamine + 0.1 mM non-essential amino acids) containing 10% of FCS at a density of 7000 cells/well, and incubated overnight at 37°C, 5% CO2, 100% relative humidity. After this incubation, cells were treated with increasing compound doses for 4 hour at 37°C. Afterwards, cells were fixed with PBS/3.7% paraformaldehyde for 15 min at room temperature, wash twice with 200 µl/well D-PBS and permeabilize with a D-PBS solution containing 0.1% Triton X-100 (Sigma-Aldrich, St. Louis, MO, USA) and 0.1 % powder Milk for 15 minutes (staining solution). […] Fluorescence images in the DAPI and Cy5™ channels were automatically acquired, stored and analysed using a Cellomics ArrayScan™ IV instrument (Cellomics, Pittsburgh, USA); the Cellomics Cytotoxicity Algorithm was used to quantify cytoplasmic fluorescence associated with phospho-S6 (Cy5™ signal parameter: "Mean Lyso Mass-pH") for each cell in 10 fields/well, and eventually expressed as a mean population value. […]

pIC50: −log10 of the molar value.

On PKAα, `NC[C@H](Cc1ccccc1)NC(=O)C1=Cc2c[nH]c3nccc(c23)CC1` [Cpd. 1, N-[(1S)-2-amino-1-benzylethyl]-6,7-dihydro-2H-2,3-diazabenzo[cd]azulene-8-carboxamide] yielded a 50% inhibitory concentration (IC50) of 0.02 µM. Moreover, in test [1], the pIC50 is 4.87. Consider `CC(=O)N1CC(C(=O)N[C@H](CN)Cc2ccccc2)=Cc2c[nH]c3nccc1c23` [Cpd. 3, 6-acetyl-N-[(1S)-2-amino-1-benzylethyl]-6,7-dihydro-2H-2,3,6-triazabenzo[cd]azulene-8-carboxamide], for which the IC50 against PKAα turned out to be 0.075 µM.

In turn, `O=C(N[C@H](CN1CCCC1)c1ccccc1)C1=Cc2c[nH]c3nccc(c23)CC1` [Cpd. 6, N-[(1S)-1-phenyl-2-pyrrolidin-1-ylethyl]-6,7-dihydro-2H-2,3-diazabenzo[cd]azulene-8-carboxamide] registered a half-maximal inhibitory concentration (IC50) on PKAα of 0.062 µM. Moreover, the pIC50 in test [1] was 4.94.

The molecule `NC[C@H](Cc1ccccc1)NC(=O)C1=Cc2c[nH]c3nccc(c23)NC1` [compound 2, N-[(1S)-2-amino-1-benzylethyl]-6,7-dihydro-2H-2,3,6-triazabenzo[cd]azulene-8-carboxamide] displayed an IC50 against PKAα of 0.01 µM.

These data come from patent EP2002836B1, “Cyclocondensed azaindoles active as kinase inhibitors” (Nerviano Medical Sciences S.r.l., priority 2007, dated 2008).
